Test results taken from patent US9708314B2, “Heterocyclic amide compound” (NISSAN CHEMICAL INDUSTRIES, LTD., priority 2013, dated 2017).

Tests used:
Format in all cases: in vivo
[1] = tested on: Echinochloa oryzacola Vasing.; test: Test Example 2: herbicidal activity, application during weed generation in submerged conditions; details: Eighteenth Table
Summary of the method: (§1)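 Post-emergence application under submerged conditions: water-diluted emulsion dosed onto the water surface (g/ha) when weeds reach one- to two-leaf stage. Soil flooded to 4 cm; greenhouse 25–30 °C. Herbicidal ratio graded in six classes, 0 (≤5%) to 5 (≥90%), at three weeks.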

Monochoria vaginalis = test: as above; details: Eighteenth Table
Summary of the method: as §1

Scirpus juncoides = test: as above; details: Eighteenth Table
Summary of the method: as §1

[2] = tested on: Beta vulgaris ssp. vulgaris; test: Test Example 4: effect on crop by application to foliage (diluvial soil, plastic box); details: for f (Beta vulgaris ssp. vulgaris) effect on crop: application to foliage, application herbicide amount 320 g/ha; for f: Application herbicide amount 320 g/ha, effect on crop
Summary of the method: (§2)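 Emulsion-formulated compound, diluted to a predetermined g/ha dose, applied by small sprayer to leaves and stems of 14-day-old seedlings grown in sterilized diluvial soil. Effect rated on 0–5 herbicidal-ratio scale three weeks on.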

Brassica campestris L. = test: as above; details: for g (Brassica campestris L.) effect on crop: application to foliage, application herbicide amount 320 g/ha; for g: Application herbicide amount 320 g/ha, effect on crop
Summary of the method: as §2

Glycine max = test: as above; details: for c (Glycine max) effect on crop: application to foliage, application herbicide amount 320 g/ha; for c: Application herbicide amount 320 g/ha, effect on crop
Summary of the method: as §2

Triticum aestivum = test: as above; details: for e (Triticum aestivum) effect on crop: application to foliage, application herbicide amount 320 g/ha; for e: Application herbicide amount 320 g/ha, effect on crop
Summary of the method: as §2

Zea mays = test: as above; details: for b (Zea mays) effect on crop: application to foliage, application herbicide amount 320 g/ha; for b: Application herbicide amount 320 g/ha, effect on crop
Summary of the method: as §2

[3] = tested on: directly sowed Oryza sativa; test: as above; details: for d (directly sowed Oryza sativa) effect on crop: application to foliage, application herbicide amount 320 g/ha; for d: Application herbicide amount 320 g/ha, effect on crop
Summary of the method: as §2

[4] = application herbicide amount 320 g/ha
[5] = application herbicide amount 192 g/ha

| SMILES | A (Echinochloa oryzicola Vasing.) herbicidal ratio grade [1, 4] | C (Monochoria vaginalis) herbicidal ratio grade (Monochoria vaginalis; [4]) | B (Scirpus juncoides) herbicidal ratio grade (Scirpus juncoides; [4]) | f (Beta vulgaris ssp. vulgaris) effect on crop [2] | g (Brassica campestris L.) effect on crop (Brassica campestris L.) | c (Glycine max) effect on crop (Glycine max) | e (Triticum aestivum) effect on crop (Triticum aestivum) | b (Zea mays) effect on crop (Zea mays) | d (directly sowed Oryza sativa) effect on crop [3] | f [2] | g (Brassica campestris L.) | c (Glycine max) | e (Triticum aestivum) | b (Zea mays) | d [3] | also measured |
| --- | --- | --- | --- | --- | --- | --- | --- | --- | --- | --- | --- | --- | --- | --- | --- | --- |
| Cc1nnc(NC(=O)c2ccc(C(F)(F)F)n3c(C)nnc23)o1 [1-002] | 3 (Herbicidal ratio of 40% or more and less than 70%) | 0 (Herbicidal ratio of 5% or less (almost no effect)) | 0 (Herbicidal ratio of 5% or less (almost no effect)) | 5 (Herbicidal ratio of 90% or more (almost completely withered)) | 4 (Herbicidal ratio of 70% or more and less than 90%) | 0 (Herbicidal ratio of 5% or less (almost no effect)) | 1 (Herbicidal ratio of 5% or more and less than 20%) | 0 (Herbicidal ratio of 5% or less (almost no effect)) | 3 (Herbicidal ratio of 40% or more and less than 70%) | – | – | – | – | – | – | – |
| Cc1nnc(NC(=O)c2ccc(C(F)(F)F)n3c(CC(=O)OC(C)C)nnc23)o1 [1-049] | 4 (Herbicidal ratio of 70% or more and less than 90%) | 2 (Herbicidal ratio of 20% or more and less than 40%) | 2 (Herbicidal ratio of 20% or more and less than 40%) | 5 (Herbicidal ratio of 90% or more (almost completely withered)) | 4 (Herbicidal ratio of 70% or more and less than 90%) | 4 (Herbicidal ratio of 70% or more and less than 90%) | 1 (Herbicidal ratio of 5% or more and less than 20%) | 0 (Herbicidal ratio of 5% or less (almost no effect)) | 3 (Herbicidal ratio of 40% or more and less than 70%) | – | – | – | – | – | – | – |
| COc1ccc(Cc2nnc3c(C(=O)Nc4nnc(C)o4)ccc(C(F)(F)F)n23)cc1 [1-069] | 4 (Herbicidal ratio of 70% or more and less than 90%) | 4 (Herbicidal ratio of 70% or more and less than 90%) | 4 (Herbicidal ratio of 70% or more and less than 90%) | – | – | – | – | – | – | 5 (Herbicidal ratio of 90% or more (almost completely withered)) | 3 (Herbicidal ratio of 40% or more and less than 70%) | 1 (Herbicidal ratio of 5% or more and less than 20%) | 1 (Herbicidal ratio of 5% or more and less than 20%) | 0 (Herbicidal ratio of 5% or less (almost no effect)) | 3 (Herbicidal ratio of 40% or more and less than 70%) | – |
| CC(C)c1nnc2c(C(=O)Nc3nnco3)ccc(C(F)(F)F)n12 [1-050] | 5 (Herbicidal ratio of 90% or more (almost completely withered)) | 3 (Herbicidal ratio of 40% or more and less than 70%) | 4 (Herbicidal ratio of 70% or more and less than 90%) | 5 (Herbicidal ratio of 90% or more (almost completely withered)) | 5 (Herbicidal ratio of 90% or more (almost completely withered)) | 3 (Herbicidal ratio of 40% or more and less than 70%) | 3 (Herbicidal ratio of 40% or more and less than 70%) | 1 (Herbicidal ratio of 5% or more and less than 20%) | 4 (Herbicidal ratio of 70% or more and less than 90%) | – | – | – | – | – | – | – |
| Cc1cc(C(=O)Nc2nnnn2C)c2nnc(C(C)C)n2c1C(F)(F)F [2-050] | – | – | – | – | – | – | – | – | – | – | – | – | – | – | – | A (Echinochloa oryzicola Vasing.) herbicidal ratio grade [1, 5]: 1 (Herbicidal ratio of 5% or more and less than 20%); C (Monochoria vaginalis) herbicidal ratio grade (Monochoria vaginalis; [5]): 2 (Herbicidal ratio of 20% or more and less than 40%); B (Scirpus juncoides) herbicidal ratio grade (Scirpus juncoides; [5]): 0 (Herbicidal ratio of 5% or less (almost no effect)); f (Beta vulgaris ssp. vulgaris) effect on crop grade ([2]; foliage application, 192 g/ha): 3 (Herbicidal ratio of 40% or more and less than 70%); g (Brassica campestris L.) effect on crop grade (Brassica campestris L.; foliage application, 192 g/ha): 0 (Herbicidal ratio of 5% or less (almost no effect)); c (Glycine max) effect on crop grade (Glycine max; foliage application, 192 g/ha): 0 (Herbicidal ratio of 5% or less (almost no effect)); e (Triticum aestivum) effect on crop grade (Triticum aestivum; foliage application, 192 g/ha): 0 (Herbicidal ratio of 5% or less (almost no effect)); b (Zea mays) effect on crop grade (Zea mays; foliage application, 192 g/ha): 0 (Herbicidal ratio of 5% or less (almost no effect)); d (directly sowed Oryza sativa) effect on crop grade ([3]; foliage application, 192 g/ha): 3 (Herbicidal ratio of 40% or more and less than 70%) |
| CCC[S+]([O-])c1nnc2c(C(=O)Nc3nnc(C)o3)ccc(C(F)(F)F)n12 (stereo not drawn) [1-092] | 4 (Herbicidal ratio of 70% or more and less than 90%) | 3 (Herbicidal ratio of 40% or more and less than 70%) | 4 (Herbicidal ratio of 70% or more and less than 90%) | – | – | – | – | – | – | 5 (Herbicidal ratio of 90% or more (almost completely withered)) | 3 (Herbicidal ratio of 40% or more and less than 70%) | 1 (Herbicidal ratio of 5% or more and less than 20%) | 0 (Herbicidal ratio of 5% or less (almost no effect)) | 5 (Herbicidal ratio of 90% or more (almost completely withered)) | 4 (Herbicidal ratio of 70% or more and less than 90%) | – |
| CSCCc1nnc2c(C(=O)Nc3nnc(C)o3)ccc(C(F)(F)F)n12 [1-083] | 2 (Herbicidal ratio of 20% or more and less than 40%) | 2 (Herbicidal ratio of 20% or more and less than 40%) | 2 (Herbicidal ratio of 20% or more and less than 40%) | – | – | – | – | – | – | 5 (Herbicidal ratio of 90% or more (almost completely withered)) | 4 (Herbicidal ratio of 70% or more and less than 90%) | 1 (Herbicidal ratio of 5% or more and less than 20%) | 1 (Herbicidal ratio of 5% or more and less than 20%) | 1 (Herbicidal ratio of 5% or more and less than 20%) | 4 (Herbicidal ratio of 70% or more and less than 90%) | – |
| CCC(C)c1nnc2c(C(=O)Nc3nnc(C)o3)ccc(C(F)(F)F)n12 (stereo not drawn) [1-021] | 4 (Herbicidal ratio of 70% or more and less than 90%) | 3 (Herbicidal ratio of 40% or more and less than 70%) | 4 (Herbicidal ratio of 70% or more and less than 90%) | 5 (Herbicidal ratio of 90% or more (almost completely withered)) | 3 (Herbicidal ratio of 40% or more and less than 70%) | 0 (Herbicidal ratio of 5% or less (almost no effect)) | 1 (Herbicidal ratio of 5% or more and less than 20%) | 1 (Herbicidal ratio of 5% or more and less than 20%) | 3 (Herbicidal ratio of 40% or more and less than 70%) | – | – | – | – | – | – | – |
| Cc1nnc(NC(=O)c2ccc(C(F)(F)F)n3c(CC[S+](C)[O-])nnc23)o1 (stereo not drawn) [1-084] | 2 (Herbicidal ratio of 20% or more and less than 40%) | 0 (Herbicidal ratio of 5% or less (almost no effect)) | 1 (Herbicidal ratio of 5% or more and less than 20%) | – | – | – | – | – | – | 4 (Herbicidal ratio of 70% or more and less than 90%) | 4 (Herbicidal ratio of 70% or more and less than 90%) | 1 (Herbicidal ratio of 5% or more and less than 20%) | 0 (Herbicidal ratio of 5% or less (almost no effect)) | 3 (Herbicidal ratio of 40% or more and less than 70%) | 4 (Herbicidal ratio of 70% or more and less than 90%) | – |
